The record followed here is patent US8178506B2, “Oligomeric compounds and compositions for use in modulation of small non-coding RNAs” (Regulus Therapeutics Inc., priority 2003, dated 2012).

The test system of the data set is T47D cells. Description: Caspase-3 activity assay (apoptosis) in T47D cells. As to conditions: for Fold Increase over UTC (caspase activity) / Fold Increase over UTC (caspase-3 activity, apoptosis): T47D cells, 48 hours; for Fold Increase over UTC (caspase activity) / apoptosis in T47D cells: 200 nM; for Fold Increase over UTC (caspase activity): relative to untreated control; for apoptosis in T47D cells: caspase assay, conclusion from Tables 9-12; for Fold Increase over UTC (caspase-3 activity, apoptosis): 200 nM oligomeric compound.

In the oligonucleotide strings, read from the 5' end, every base follows the letter of its sugar. An asterisk marks phosphorothioate; unmarked linkages are phosphodiester. Other units and linkages are bracketed, terminal groups are in braces. A string of capitals states the bases alone. e = 2'-O-(2-methoxyethyl) (MOE); [5mC] = 5-methylcytosine; d = 2'-deoxy (DNA)

As to “328405 (antisense e[5mC]*eT*eG*eA*eA*d[5mC]*dA*dG*dG*dG*dT*dA*dA*dA*dA*eT*e[5mC]*eA*e[5mC]*eT) [compound 328405]”, the “Fold Increase over UTC (caspase activity)” value came out at 1.0.
Take “GGCCTAATATCCCTACCCCA (antisense; same sequence listed as MOE 5-10-5 gapmer and as uniform MOE, further chemistry not given here) [ISIS 328652]”: the “apoptosis in T47D cells” value is on record as “induce apoptosis”.
For “328390 (eG*eG*eA*eG*e[5mC]*d[5mC]*dT*dT*dG*d[5mC]*dG*d[5mC]*dT*d[5mC]*dA*eG*e[5mC]*eA*eT*eT; antisense) [compound 328390]”, for the setting “experiment of Table 11”, the “Fold Increase over UTC (caspase-3 activity, apoptosis)” value is recorded as 0.9 fold.
In the case of “TACAACGGCATTGTCCTGAA (antisense; same sequence listed as MOE 5-10-5 gapmer and as uniform MOE, further chemistry not given here) [ISIS 328655]”, the “apoptosis in T47D cells” value is reported as “prevent or have a protective effect from apoptosis”.
With “328694 (e[5mC]*eA*eA*eA*e[5mC]*dG*dG*dT*dA*dA*dG*dA*dT*dT*dT*eG*e[5mC]*eA*eG*eA; antisense) [compound 328694]”, the “Fold Increase over UTC (caspase-3 activity, apoptosis)” value (experiment of Table 10) was found to be 0.8 fold.
Regarding “328404 (antisense eG*eT*eA*eG*eA*dT*d[5mC]*dT*d[5mC]*dA*dA*dA*dA*dA*dG*e[5mC]*eT*eA*e[5mC]*e[5mC]) [compound 328404]”, the “Fold Increase over UTC (caspase-3 activity, apoptosis)” value (experiment of Table 11) is listed as 0.9 fold.
Consider “SEQ ID NO 511: gapmer of Tables 9-12 having this SEQ ID NO (antisense eT*eT*eG*eA*eA*d[5mC]*dT*d[5mC]*d[5mC]*dA*dT*dG*d[5mC]*d[5mC]*dA*e[5mC]*eA*eA*eG*eG)”, for which the “apoptosis in T47D cells” value is reported as “induce apoptosis”.
Regarding “SEQ ID NO 498: gapmer of Tables 9-12 having this SEQ ID NO (antisense eG*eG*e[5mC]*eA*e[5mC]*dT*dT*d[5mC]*dA*dT*dT*dG*d[5mC]*dT*dG*e[5mC]*eT*eG*e[5mC]*e[5mC])”, the “apoptosis in T47D cells” value is listed as “induce apoptosis”.
As to “328427 (antisense eG*eA*eT*eG*eT*d[5mC]*dA*d[5mC]*dT*dG*dA*dG*dG*dA*dA*eA*eT*e[5mC]*eA*e[5mC]) [compound 328427]”, the “Fold Increase over UTC (caspase-3 activity, apoptosis)” value (experiment of Table 11) was found to be 0.8 fold.
Turning to “SEQ ID NO 536: gapmer of Tables 9-12 having this SEQ ID NO (eG*eA*eT*eG*eT*d[5mC]*dA*d[5mC]*dT*dG*dA*dG*dG*dA*dA*eA*eT*e[5mC]*eA*e[5mC])”, the “apoptosis in T47D cells” value is on record as “prevent or have a protective effect from apoptosis”.
As to “CAAACGGTAAGATTTGCAGA (antisense; same sequence listed as MOE 5-10-5 gapmer and as uniform MOE, further chemistry not given here) [ISIS 328694]”, the “apoptosis in T47D cells” value was “prevent or have a protective effect from apoptosis”.
Take “SEQ ID NO 516: gapmer of Tables 9-12 having this SEQ ID NO (antisense eA*eA*eT*eG*eG*dA*dG*d[5mC]*d[5mC]*dA*dA*dG*dG*dT*dG*e[5mC]*eT*eG*e[5mC]*e[5mC])”: the “apoptosis in T47D cells” value is recorded as “induce apoptosis”.
Still for that read-out and setting: to “TGCTCAGCCAGCCCCATTCT (antisense; same sequence listed as MOE 5-10-5 gapmer and as uniform MOE, further chemistry not given here) [ISIS 328645]” belongs “induce apoptosis”; to “GACTACTGTTGAGAGGAACA (antisense; same sequence listed as MOE 5-10-5 gapmer and as uniform MOE, further chemistry not given here) [ISIS 328639]”, “prevent or have a protective effect from apoptosis”.
As to “328690 (eG*e[5mC]*e[5mC]*eT*e[5mC]*d[5mC]*dT*dT*d[5mC]*dA*dT*dA*dT*dA*dT*eT*e[5mC]*eT*e[5mC]*eA; antisense) [compound 328690]”, for the setting “experiment of Table 12”, the “Fold Increase over UTC (caspase-3 activity, apoptosis)” value was found to be 0.8 fold.
For “328432 (antisense eG*eA*eG*e[5mC]*eA*dT*dG*d[5mC]*dA*dA*d[5mC]*dA*d[5mC]*dT*d[5mC]*eT*eG*eT*eG*e[5mC]) [compound 328432]”, the “Fold Increase over UTC (caspase-3 activity, apoptosis)” value (experiment of Table 12) stood at 0.6 fold.
For the substance “328653 (eG*eT*eG*eT*eT*d[5mC]*dA*dG*dA*dA*dA*d[5mC]*d[5mC]*d[5mC]*dA*eG*eG*e[5mC]*e[5mC]*e[5mC]; antisense) [compound 328653]”, the “Fold Increase over UTC (caspase-3 activity, apoptosis)” value (experiment of Table 11) was 1.1 fold.
For the substance “328656 (eT*eT*eT*e[5mC]*eA*dG*dG*d[5mC]*dT*d[5mC]*dA*d[5mC]*d[5mC]*dT*d[5mC]*e[5mC]*e[5mC]*e[5mC]*eA*eG; antisense) [compound 328656]”, the “Fold Increase over UTC (caspase activity)” value turned out to be 1.1.
The same measure, in the same setting: in the case of “328381 (eA*e[5mC]*eA*eG*eG*dT*dG*dA*dG*d[5mC]*dG*dG*dA*dT*dG*eT*eT*e[5mC]*eT*eG; antisense) [compound 328381]” it was 1.1.
Turning to “328406 (antisense eA*eG*e[5mC]*eA*eA*dG*dT*d[5mC]*dT*dA*d[5mC]*dT*d[5mC]*d[5mC]*dT*e[5mC]*eA*eG*eG*eG) [compound 328406]”, the “Fold Increase over UTC (caspase-3 activity, apoptosis)” value (experiment of Table 11) is 1.0 fold.
“SEQ ID NO 485: gapmer of Tables 9-12 having this SEQ ID NO (antisense eT*e[5mC]*eA*e[5mC]*eA*dA*dT*d[5mC]*d[5mC]*d[5mC]*d[5mC]*dA*d[5mC]*d[5mC]*dA*eA*eA*e[5mC]*eT*e[5mC])”: the “apoptosis in T47D cells” value is “prevent or have a protective effect from apoptosis”.
As to “328645 (eT*eG*e[5mC]*eT*e[5mC]*dA*dG*d[5mC]*d[5mC]*dA*dG*d[5mC]*d[5mC]*d[5mC]*d[5mC]*eA*eT*eT*e[5mC]*eT) [compound 328645]”, where the note is “experiment of Table 11”, the “Fold Increase over UTC (caspase-3 activity, apoptosis)” value is given as 2.2 fold.
Turning to “GCTTTTAGAACCACTGCCTC (antisense; same sequence listed as MOE 5-10-5 gapmer and as uniform MOE, further chemistry not given here) [ISIS 328646]”, the “apoptosis in T47D cells” value was “induce apoptosis”.
For “328398 (antisense eG*e[5mC]*e[5mC]*eA*eT*dT*dG*dG*dG*dA*d[5mC]*d[5mC]*dT*dG*d[5mC]*eA*e[5mC]*eA*eG*e[5mC]) [compound 328398]”, the “Fold Increase over UTC (caspase-3 activity, apoptosis)” value (experiment of Table 10) stood at 0.9 fold.
On to “328401 (antisense eG*e[5mC]*e[5mC]*e[5mC]*eT*d[5mC]*dG*dA*d[5mC]*dG*dA*dA*dA*dA*d[5mC]*e[5mC]*eG*eA*e[5mC]*eT) [compound 328401]”, for which, where the note is “experiment of Table 12”, the “Fold Increase over UTC (caspase-3 activity, apoptosis)” value amounted to 0.8 fold.
Turning to “SEQ ID NO 518: gapmer of Tables 9-12 having this SEQ ID NO (antisense eG*e[5mC]*eT*eA*eG*dT*dG*dA*d[5mC]*dA*dG*dG*dT*dG*d[5mC]*eA*eG*eA*e[5mC]*eA)”, the “apoptosis in T47D cells” value is “prevent or have a protective effect from apoptosis”.
On to “328426 (antisense eG*eG*eT*eT*eG*dG*d[5mC]*d[5mC]*dG*d[5mC]*dA*dG*dA*d[5mC]*dT*e[5mC]*eG*eT*eA*e[5mC]) [compound 328426]”, for which the “Fold Increase over UTC (caspase-3 activity, apoptosis)” value (experiment of Table 11) is on record as 1.3 fold.
“328392 (eG*eA*eT*eT*eG*d[5mC]*dA*d[5mC]*dA*dT*d[5mC]*d[5mC]*dA*d[5mC]*dA*e[5mC]*eT*eG*eT*e[5mC]; antisense) [compound 328392]”: the “Fold Increase over UTC (caspase activity)” value is 1.0.
Consider “328642 (eA*e[5mC]*eT*e[5mC]*e[5mC]*d[5mC]*dA*dG*dG*dG*dT*dG*dT*dA*dA*e[5mC]*eT*e[5mC]*eT*eA; antisense) [compound 328642]”, for which, where the note is “experiment of Table 12”, the “Fold Increase over UTC (caspase-3 activity, apoptosis)” value stood at 1.0 fold.
Take “SEQ ID NO 539: gapmer of Tables 9-12 having this SEQ ID NO (e[5mC]*e[5mC]*eG*eG*e[5mC]*dT*dA*dT*dT*dG*dA*dG*dT*dT*dA*eT*eG*eT*eA*e[5mC])”: the “apoptosis in T47D cells” value was “induce apoptosis”.
On the same count and under the same terms, to “SEQ ID NO 521: gapmer of Tables 9-12 having this SEQ ID NO (antisense eT*eT*eT*eA*e[5mC]*dT*d[5mC]*dA*dT*dA*d[5mC]*d[5mC]*dT*d[5mC]*dG*e[5mC]*eA*eA*e[5mC]*e[5mC])” belongs “induce apoptosis”.
Still for that read-out and setting: to “SEQ ID NO 541: gapmer of Tables 9-12 having this SEQ ID NO (eG*eA*eG*e[5mC]*eA*dT*dG*d[5mC]*dA*dA*d[5mC]*dA*d[5mC]*dT*d[5mC]*eT*eG*eT*eG*e[5mC])” belongs “prevent or have a protective effect from apoptosis”; to “ISIS 328371: 5-10-5 2′-MOE gapmer PS; targets mir-1d pri-miRNA (eT*e[5mC]*e[5mC]*eA*eT*dA*dG*d[5mC]*dT*dT*dA*dG*d[5mC]*dA*dG*eG*eT*e[5mC]*e[5mC]*eA)”, “induce apoptosis”.
On to “SEQ ID NO 520: gapmer of Tables 9-12 having this SEQ ID NO (antisense eT*eA*e[5mC]*e[5mC]*eT*d[5mC]*dT*dG*d[5mC]*dA*dG*dT*dA*dT*dT*e[5mC]*eT*eA*e[5mC]*eA)”, for which the “apoptosis in T47D cells” value was “prevent or have a protective effect from apoptosis”.
Same read-out and setting: in the case of “SEQ ID NO 534: gapmer of Tables 9-12 having this SEQ ID NO (antisense eG*eA*e[5mC]*e[5mC]*eT*dG*d[5mC]*dT*dA*d[5mC]*dT*d[5mC]*dA*d[5mC]*dT*e[5mC]*eT*e[5mC]*eG*eT)” it was “prevent or have a protective effect from apoptosis”.
With “328640 (eT*e[5mC]*eT*e[5mC]*e[5mC]*dT*dT*dG*dG*dG*dT*dG*dT*d[5mC]*d[5mC]*eT*e[5mC]*e[5mC]*eT*e[5mC]; antisense) [compound 328640]”, the “Fold Increase over UTC (caspase-3 activity, apoptosis)” value (experiment of Table 12) turned out to be 0.9 fold.
Take “GGATTTAAACGGTAAACATC (antisense; same sequence listed as MOE 5-10-5 gapmer and as uniform MOE, further chemistry not given here) [ISIS 328695]”: the “apoptosis in T47D cells” value was “prevent or have a protective effect from apoptosis”.
